Measured values as given in a melting point compilation (Tetko et al.; mined from patent text by program, amines drawn as free bases though some values may be those of a salt).

SMILES | melting point [°C]
O=C(Nc1ccc2c(c1)C(=O)c1cc(NC(=O)c3ccccc3)ccc1C2=O)c1ccccc1 | 224
CCCCC1(CCCC)CS(=O)(=O)c2ccc(N(C)C)cc2[C@@H](c2ccc(OCc3cccc(CN(CC(=O)O)CC(=O)O)n3)cc2)[C@H]1O | 153 to 155
N#Cc1cc(F)c(N2C(=O)C3CCCCN3C2=O)nc1Cl (centres undefined) | 192 to 193
Nc1ccc2nccn2n1 | 198 to 202
CC(C)c1ccccc1Sc1c(O)cc(-c2ccc(-c3cccnc3)cc2)oc1=O | 145 to 147
O=c1ccc(-c2c(-c3ccccc3)nn3ccncc23)c[nH]1 | > 250
NC(=O)OCCn1cc(C(N)=O)c([N+](=O)[O-])n1 | 191 to 194
Cc1c(C)c2c(c(C)c1OCCc1ccccc1)C(c1ccc(C(C)C)cc1)C(C)(C)O2 (centres undefined) | 72 to 74
CCOC(=O)C(=O)CCc1ccccc1 | 126 to 127
COc1cc2c(O)c3c4c(ccnc4c2cc1OC)CCC3 | 218
O=C(Nc1cn(C2CCCCO2)nc1C(=O)NCCCO)c1ccccn1 (centres undefined) | 139 to 140
N#Cc1ccc(-c2cn(-c3ccc(C#N)cc3)c(SCC(O)CO)n2)cc1 (centres undefined) | 190 to 195
CCNC(=O)N=C(NC(=O)Nc1ccccc1C)SC | 152 to 153
CC(C)n1nc(-c2cnc(N)nc2-c2ccc(Cl)cc2)ccc1=O | 195
COC(=O)C(C)NC(=O)C1C(C)(C)CCC1(C)C (centres undefined) | 86.7
COc1cc(-c2cnc3[nH]cc(I)c3n2)cc(OC)c1OC | 230 to 232
NC(=O)c1cccc(Cc2c[nH]cn2)c1O | 198
COc1cccc2c1CCC(COS(=O)(=O)c1ccc(C)cc1)C2 (centres undefined) | 81 to 82
COC(=O)C=C(C)c1ccc2c(ccn2S(=O)(=O)c2ccccc2)c1 | 80 to 85
CCCOCC1(C)CCCOc2cc(/C=C/c3ccc(C(=O)O)cc3)ccc21 (centres undefined) | 164 to 165

SMILES | melting point [°C]
COc1ccc(Nc2nc(-c3ccc(OC)c(OC)c3)cs2)nc1 | 222 to 225
O=C(O)COc1cc(F)ccc1C(=S)NCc1nc2c(F)c(F)cc(F)c2s1 | 150
C#CC1(O)CCC2C3CC(C)C4=CC(=O)CCC4C3CCC21CC (centres undefined) | 148 to 151
Cc1ccc(C(=O)N[C@@H](COC(C)(C)C)NC(=S)Nc2cccc([N+](=O)[O-])c2)cc1 | 169 to 171
CCCCOc1c2c(nc3c1cnn3CC)CCc1ccccc1C2=O | 113 to 115
CC(C)c1ccc2c(c1)C(=O)c1ccc(C(=O)O)cc1CC2 | 178 to 182
CC(C)CCCC(C)C1CCC2C3CC=C4CC(OC(=O)C(C)(C)COP(=O)(O)OCCBr)CCC4(C)C3CCC12C (centres undefined) | 98
Cc1cc2c(cc1Cl)N(C(=O)CN1CCN(c3ccccc3)CC1)c1ccccc1N(C)S2(=O)=O | 194 to 196
O=C(Nc1ccccc1C(=NC1CCN(Cc2ccccc2)CC1)c1ccccc1)C(Cl)(Cl)Cl | 151 to 152
CC(=O)Oc1ccc(C(=O)Cl)cc1 | 167
CC(=C\c1ccccc1)/C=C(\C)C(=O)NCCCCCC(=O)NO | 120 to 122
COc1c(C(N)=O)sc(C(N)=O)c1N=NN(C)C | 226 to 228
CON=C(C(=O)OC)c1ccccc1/C=C(\Cl)C(=O)O | 107 to 109
O=c1[nH]c2cc(O)ccc2n1CCN1CCN(c2cccc(C(F)(F)F)c2)CC1 | 275
CCCn1c(=O)c2cc(C(=O)O)cn2c2ccccc21 | 260 to 262
O=c1cc(N2CCOCC2)oc2cc(OS(=O)(=O)C(F)(F)F)ccc12 | 143 to 145
CCOc1ccc2cc(-c3nn(C(C)c4oc5ccccc5c(=O)c4-c4cccc(F)c4)c4ncnc(N)c34)ccc2c1 (centres undefined) | 286 to 290
CCC(C)(C)c1ccc(Oc2ccc(C(F)(F)F)cc2NC(=O)Nc2cc(C(F)(F)F)cc(C(F)(F)F)c2)c(C(=O)O)c1 | 238 to 240
COc1cc(CN2CCc3cc(OCc4ccccc4)c(OC)cc3C2=O)cc(OC)c1 | 82 to 83
Cc1ccccc1-n1ccc2c(Cl)nc3c(C)cccc3c21 | 135 to 137

SMILES | melting point [°C]
CCCCCCCCC(Sc1ccccn1)C(=O)Nc1cccc2cnccc12 (centres undefined) | 81 to 83
Cc1c(-c2ccncc2)[nH]c2c1C(=O)CC(C)(C)C2 | 241 to 242
CCOc1nc(N)n2nc(-c3ccco3)nc2n1 | 211 to 213
COc1cc2ncn(CCCCCl)c(=O)c2cc1OC | 117
N#Cc1ncn2c(C(F)(F)F)cc(-c3ccccn3)nc12 | 205
CCOC(=O)C(C)Oc1ncn(-c2ccc(OC)cc2)n1 (centres undefined) | 62 to 64
[N-]=[N+]=NCCCc1ccc(C(N)=O)s1 | 85 to 87
Cc1cc2c(c(C(C)(C)C)c1)OC(=O)C2c1ccc2c(c1)c1ccccc1n2C (centres undefined) | 84 to 90
Cc1cccc(-c2n[nH]cc2-c2ccc(F)c(-c3ccc(N4CCOCC4)nc3)c2)n1 | 85 to 87
Cn1c(C(F)(F)F)cc(=O)n(-c2cc(OC(=O)NC3CCCCC3)c(Cl)cc2F)c1=O | 171 to 173
Cc1c(Cc2ccc([N+](=O)[O-])cc2)c(=O)oc2cc(OCC#N)cc(OCC#N)c12 | 178 to 185
COc1ccc(-c2cc(=O)n(CC3CC3)nc2-c2ccc(OC)c(F)c2)cc1F | 142 to 143
Cn1ncnc1COc1nn2c(-c3ccccc3F)nnc2cc1C(F)(F)F | 123 to 126
Clc1ccc(-n2ccc(OCCOCCN3CCCCC3)n2)cc1Cl | 126 to 128
CC(C)n1nc(-c2c(NCc3ccco3)nc(N)nc2-c2ccccc2)ccc1=O | 213 to 214
CC(CCCC(C)(C)O)C1CCC2C3=CC=C4CC(O)CCC4(C)C3CCC21C (centres undefined) | 122 to 125
COc1ccc2c(c1)c(Cc1nc(-c3cccc(Br)c3)cs1)c(C)n2C(=O)c1ccc(Cl)cc1 | 208 to 212
CN(Cc1ccccc1)c1ccc(C(=O)c2ccccc2)cc1[N+](=O)[O-] | 99.5
c1ccc2c(-c3nnn[nH]3)cccc2c1 | 205 to 206

More lines, now with the values ahead:

melting point [°C] | SMILES
235 to 237 | Cc1ccc(-c2[nH]c(-c3ccc(C(F)(F)F)cc3)nc2C(=O)Nc2nccs2)s1
254 to 256 | CCN1C(=O)CCCc2cc(Nc3ncc(Cl)c(Nc4c(F)cccc4C(=O)NC)n3)c(OC)cc21
115 to 117 | COC(c1ccccc1)c1cc(C(F)(F)F)nc2c(C(F)(F)F)cccc12 (centres undefined)
154 to 155 | N=C(Nc1ccc(C(F)(F)F)cc1)Nc1ncccc1OCc1ccccc1
101 to 102 | CCNC(=O)c1cc(NC)ccc1[Si](C)(C)C
59 to 62 | CCCCN(Cc1ccccc1)C(=O)Nc1cccc(Cl)c1O
183 to 184 | O=C(Nc1cc(Cl)ccc1O)Nc1ccccc1C(F)(F)F
92.5 to 94 | CCNc1cc(Cl)c(C(F)(F)F)cc1[N+](=O)[O-]
59.1 to 60.6 | CC(C)=CCCC(C)=CCOc1ccc(OCC=C(C)CCC=C(C)C)c(C(=O)NCCc2ccncc2)c1
88 to 90 | CC(=O)c1ccc(-c2ccc(F)cc2)c([N+](=O)[O-])c1
143 to 145 | CCCc1nnc(N2N=C(c3ccc([N+](=O)[O-])c(C)c3)c3cc4c(cc3C[C@H]2C)OCO4)s1
113 to 114 | CC1(CN2CCC(Oc3ccc(C(F)(F)F)cc3)CC2)Cn2cc([N+](=O)[O-])nc2O1 (centres undefined)
148 | O=S(=O)(Cc1ccccc1)c1ccc(Cl)cc1
108 to 110 | COc1ccc(S(N)(=O)=O)cc1C(=O)C(C)Br (centres undefined)
95 to 96 | CCOC(=O)c1cn(-c2cccc(OC)c2)cn1
108 | COC(=O)C1CCC(C)(C(=O)c2ccc(OC)cc2OC)C1(C)C (centres undefined)
62 | COC1=C(OC)C(=O)C(CCCCCCCCCCCCC(=O)O)=C(C)C1=O
173 to 178 | CCn1c(-c2cc(OC)c(OC)cc2S(N)(=O)=O)cc(=Nc2c(C)cc(C)c(S(N)(=O)=O)c2C)n(C)c1=O
103 to 104 | O=C1OCCN1CCn1ccnc1[N+](=O)[O-]
178 to 181 | Cn1c2c(c3ccc(-n4ccc(OCc5ccccc5)cc4=O)cc31)CNCCC2

melting point [°C] | SMILES
166 | COC(=O)C1=C(C)NN=C(C(=O)OC(C)C)C1c1ccccc1Cl (centres undefined)
122 to 123 | COc1ccc(OC)c2c1C(=O)C=C(SCCCCO)C2=O
50 to 51 | CCCCc1c(Cl)nc(C)nc1Cl
65 | c1ccc(OCCSCc2nnc(-c3ccc(OCCN4CCCC4)cc3)o2)cc1
52 to 54 | CCCCCCCOC1CCC(=O)N1 (centres undefined)
99 to 101 | COC(=O)c1c(C)nc(C)c(C(=O)OC)c1-c1ccccc1[N+](=O)[O-]
79 to 80 | CC(=O)NCC1CCN(CCOc2ccccc2)CC1
100 | CCCCCCCCCCCCCC(=O)c1cc(O)c(C)c(C)c1O
110 to 112 | CS(=O)(=O)c1ccc(-c2cc(C(F)(F)F)nn2-c2ccc(OC(F)(F)F)cc2)cc1F
103 to 104 | O=c1ccn(-c2cccc(C(F)(F)F)c2)nc1-c1nncn1-c1ccccc1
110 | CCOC(=O)NC(=O)c1nn(-c2cc(Cl)c(C(C)(C)C#N)c(Cl)c2)c(=O)[nH]c1=O
140 to 142 | CC1(C)CN(CC=CC(=O)Nc2cc3c(Nc4ccc(F)c(Cl)c4)ncnc3cc2OCC2CC2)CC(=O)O1
275 | O=c1[nH]cnc2cc3c(cc12)OCCO3
106 to 112 | C[C@@H](n1cnc2cc(N3CCN(C)CC3)c(F)cc2c1=O)[C@](O)(Cn1cncn1)c1ccc(F)cc1F
117 to 118 | CCOc1ccc(CNC(=O)C(=O)NCCc2ccccn2)c(OC)c1
61 to 64 | CCCCCc1nc(C#N)c(C#N)nc1O
213 to 214 | O=C(O)c1c(-c2ccccc2)c2cc(OCc3ccccc3)ccc2n1Cc1cc2c(cc1Cl)OCO2
230 to 231 | Cc1nc2c(o1)-c1c(SC(C)C)sc(C(N)=O)c1CC2
31 to 33 | COC(=O)c1cc(C)cnc1Cl
180 to 182 | O=C1Cc2ccccc2C(c2ccccc2Cl)N1 (centres undefined)
